Data as given in US20070249590A1, “Substituted indolo[2,3-a]pyrrolo[3,4-c]carbazole compounds useful in treating kinase disorders” (priority 2005, published 2007).

What follows are molecules tested against T1, JAK3 (JH1 and JH2 domain) (Homo sapiens, UniProt P52333) (assay: JAK3 Kinase Assay (ELISA of peptide substrate phosphorylation)). Conditions: purified JAK3 enzyme, 10 μM ATP, biotinylated peptide substrate, 1 hour at room temperature.
T1 sequence (P52333 521-1111 limits assumed): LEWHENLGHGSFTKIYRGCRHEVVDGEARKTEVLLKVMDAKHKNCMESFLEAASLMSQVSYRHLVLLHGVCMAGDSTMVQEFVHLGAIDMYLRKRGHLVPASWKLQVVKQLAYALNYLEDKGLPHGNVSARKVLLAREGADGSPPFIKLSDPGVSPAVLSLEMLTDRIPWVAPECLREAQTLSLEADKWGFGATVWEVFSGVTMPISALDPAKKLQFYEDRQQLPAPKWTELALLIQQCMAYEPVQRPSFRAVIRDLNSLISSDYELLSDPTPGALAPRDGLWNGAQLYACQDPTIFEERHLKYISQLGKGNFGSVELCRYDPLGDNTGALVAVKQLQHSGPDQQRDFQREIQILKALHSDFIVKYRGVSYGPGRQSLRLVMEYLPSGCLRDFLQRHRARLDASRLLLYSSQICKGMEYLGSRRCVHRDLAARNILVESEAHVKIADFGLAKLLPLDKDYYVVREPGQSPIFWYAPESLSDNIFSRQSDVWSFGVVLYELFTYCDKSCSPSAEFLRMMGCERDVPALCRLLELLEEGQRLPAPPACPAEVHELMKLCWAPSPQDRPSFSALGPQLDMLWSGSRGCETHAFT
Format: biochemical
In short: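 Sf21-baculovirus-expressed JAK3 (JH1+JH2), glutathione-bead purified, with biotinylated peptide substrate (in buffer containing 10 μM ATP) in HEPES pH 7.5/MgCl2/DTT, 1 h RT. Product was captured on Neutravidin, detected with HRP anti-phosphotyrosine (PY99)/TMB, OD 450/650 nm. Triplicate 16-point half-log series from 200 μM gave IC50; otherwise % inhibition at 1 μM.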
O=C(NC1CCN(Cc2ccccc2)CC1)OCC1(O)Cn2c3ccccc3c3c4c(c5c6ccccc6n(c5c32)C1)C(=O)NC4 (stereo not drawn) [Cpd 145, 12,13-{2-hydroxy-2-[(1-benzyl-piperidin-4-yl)carbamoyloxymethyl]-propan-1,3-yl}-6,7,12,13-tetrahydro-5-oxo-5H-indolo[2,3-a]pyrrolo[3,4-c]carbazole] gave an IC50 of 31 nM.
NS(=O)(=O)c1ccc(CCNC(=O)OC2Cn3c4ccccc4c4c5c(c6c7ccccc7n(c6c43)CC2O)C(=O)NC5=O)cc1 (stereo not drawn) [Cpd 105, 12,13-(2-{[2-(4-sulfonylamino-phenyl)ethyl]carbamoyloxy}-3-hydroxy-butan-1,4-yl)-12,13-dihydro-5,7-dioxo-6H-indolo[2,3-a]pyrrolo[3,4-c]carbazole] gave an IC50 of 15 nM.
Molecule O=C1NC(=O)c2c1c1c3ccccc3n3c1c1c2c2ccccc2n1CC(OC(=O)N1CCN(c2ccccc2)CC1)CC3 (stereo not drawn) [Cpd 64, 12,13-{2-[(4-phenyl-piperazin-1-yl)carbonyloxy]-butan-1,4-yl}-12,13-dihydro-5,7-dioxo-6H-indolo[2,3-a]pyrrolo[3,4-c]carbazole] has an IC50 of 36 nM.
CN(C)[C@H]1CCN(C(=O)OC2CCn3c4ccccc4c4c5c(c6c7ccccc7n(c6c43)C2)C(=O)NC5=O)C1 (stereo partly drawn) [Cpd 73, 12,13-(2-{[(3S)-3-dimethylamino-pyrrolidin-1-yl]carbonyloxy}-butan-1,4-yl)-12,13-dihydro-5,7-dioxo-6H-indolo[2,3-a]pyrrolo[3,4-c]carbazole] was tested, and the IC50 was 42 nM.
Work on CN(C)CCNC(=O)OC1CCCn2c3ccccc3c3c4c(c5c6ccccc6n(c5c32)C1)C(=O)NC4=O (stereo not drawn) [Cpd 114, 12,13-{2-[(2-dimethylamino-ethyl)carbamoyloxy]-pentan-1,5-yl}-12,13-dihydro-5,7-dioxo-6H-indolo[2,3-a]pyrrolo[3,4-c]carbazole] yielded an IC50 of 125 nM.
O=C1NC(=O)c2c1c1c3cc(-c4cncnc4)ccc3n3c1c1c2c2ccccc2n1CC(O)CC3 (stereo not drawn) [Cpd 34, 3-pyrimidin-5-yl-12,13-(2-hydroxy-butan-1,4-yl)-12,13-dihydro-5,7-dioxo-6H-indolo[2,3-a]pyrrolo[3,4-c]carbazole] was tested, and the IC50 was 66 nM.
In the case of O=C1NC(=O)c2c1c1c3ccccc3n3c1c1c2c2ccccc2n1CC(OC(=O)N1CCN(CCN2CCOCC2)CC1)C(O)C3 (stereo not drawn) [Cpd 94], the IC50 is reported as 516 nM.
CC(C)(C)NC(=O)OC1CCn2c3ccccc3c3c4c(c5c6ccccc6n(c5c32)C1)C(=O)NC4=O (stereo not drawn) [Cpd 40, 12,13-[2-(t-butylcarbamoyloxy)-butan-1,4-yl]-12,13-dihydro-5,7-dioxo-6H-indolo[2,3-a]pyrrolo[3,4-c]carbazole] was tested, and the IC50 was > 400 nM.
Work on O=C1NC(=O)c2c1c1c3ccccc3n3c1c1c2c2ccccc2n1CC(OC(=O)N1CCN(C(=O)CN2CCCC2)CC1)C(O)C3 (stereo not drawn) [Cpd 95, 12,13-[2-({4-[(pyrrolidin-1-yl-methyl)carbonyl]piperazin-1-yl}carbonyloxy)-3-hydroxy-butan-1,4-yl]-12,13-dihydro-5,7-dioxo-6H-indolo[2,3-a]pyrrolo[3,4-c]carbazole] yielded an IC50 of 159 nM.
CN(C)CCNC(=O)OCC1(O)Cn2c3ccccc3c3c4c(c5c6ccccc6n(c5c32)C1)C(=O)NC4 (stereo not drawn) [Cpd 173, 12,13-{2-hydroxy-2-[(2-dimethylamino-ethyl)carbamoyloxymethyl]-propan-1,3-yl}-6,7,12,13-tetrahydro-5-oxo-5H-indolo[2,3-a]pyrrolo[3,4-c]carbazole] was tested, and the IC50 was 69 nM.
For CN(C)CCCN1CCN(C(=O)OC2CCCn3c4ccccc4c4c5c(c6c7ccccc7n(c6c43)C2)C(=O)NC5=O)CC1 (stereo not drawn) [Cpd 115, 12,13-(2-{[4-(3-dimethylamino-prop-1-yl)piperazin-1-y]carbonyloxy}-pentan-1,5-yl)-12,13-dihydro-5,7-dioxo-6H-indolo[2,3-a]pyrrolo[3,4-c]carbazole], the IC50 was > 200 nM.
With O=C1NC(=O)c2c1c1c3ccccc3n3c1c1c2c2ccccc2n1CC(O)(C(=O)NCCCN1CCOCC1)C(O)C3 (stereo not drawn) [Cpd 120, 12,13-{2-[(3-morpholin-4-yl-prop-1-yl)carbamoyl]-2,3-dihydroxy-butan-1,4-yl}-12,13-dihydro-5,7-dioxo-6H-indolo[2,3-a]pyrrolo[3,4-c]carbazole] the IC50 was 17 nM.
O=C1NC(=O)c2c1c1c3ccccc3n3c1c1c2c2ccccc2n1CC(OC(=O)N1CCCNCC1)CC3 (stereo not drawn) [Cpd 60, 12,13-{2-[(hexahydro-1H-1,4-diazepin-1-yl)carbonyloxy]-butan-1,4-yl}-12,13-dihydro-5,7-dioxo-6H-indolo[2,3-a]pyrrolo[3,4-c]carbazole] gave an IC50 of 156 nM.
With CC(C)(C)OC(=O)CNC(=O)OC1CCn2c3ccccc3c3c4c(c5c6ccccc6n(c5c32)C1)C(=O)NC4=O (stereo not drawn) [Cpd 37, 12,13-{2-[(t-butoxycarbonylmethyl)carbamoyloxy]-butan-1,4-yl}-12,13-dihydro-5,7-dioxo-6H-indolo[2,3-a]pyrrolo[3,4-c]carbazole] the IC50 was 4 nM.
O=C(NCc1ccncc1)OC1CCn2c3ccccc3c3c4c(c5c6ccccc6n(c5c32)C1)C(=O)NC4=O (stereo not drawn) [Cpd 47, 12,13-{2-[(pyridin-4-yl-methyl)carbamoyloxy]-butan-1,4-yl}-12,13-dihydro-5,7-dioxo-6H-indolo[2,3-a]pyrrolo[3,4-c]carbazole] gave an IC50 of 30 nM.
In the case of O=C(NCC1CCCCC1)OC1Cn2c3ccccc3c3c4c(c5c6ccccc6n(c5c32)CC1O)C(=O)NC4=O (stereo not drawn) [Cpd 81, 12,13-{2-[(cyclohexyl-methyl)carbamoyloxy]-3-hydroxy-butan-1,4-yl}-12,13-dihydro-5,7-dioxo-6H-indolo[2,3-a]pyrrolo[3,4-c]carbazole], the IC50 is reported as 434 nM.
With CN1CCN(C(=O)OC2CCn3c4ccccc4c4c5c(c6c7ccccc7n(c6c43)C2)C(=O)NC5=O)CC1 (stereo not drawn) [Cpd 51, 12,13-{2-[(4-methyl-piperazin-1-yl)carbonyloxy]-butan-1,4-yl}-12,13-dihydro-5,7-dioxo-6H-indolo[2,3-a]pyrrolo[3,4-c]carbazole] the IC50 was > 400 nM.
O=C1NCc2c1c1c3ccccc3n3c1c1c2c2ccccc2n1CCOCC3 [Cpd 29, 12,13-(3-oxa-pentan-1,5-yl)-6,7,12,13-tetrahydro-5-oxo-5H-indolo[2,3-a]pyrrolo[3,4-c]carbazole] was tested, and the IC50 was 14 nM.
In the case of O=C1NCc2c1c1c3cc(Br)ccc3n3c1c1c2c2ccccc2n1C/C=C\C3 [Cpd 6, 3-bromo-12,13-(but-2-en-1,4-yl)-6,7,12,13-tetrahydro-5-oxo-5H-indolo[2,3-a]pyrrolol [3,4-c]carbazole], the IC50 is reported as 171 nM.
For CN(C)CCNC(=O)/C=C/c1ccc2c(c1)c1c3c(c4c5ccccc5n5c4c1n2CC(CO)C5)CNC3=O (stereo not drawn) [Cpd 222, 3-{(2E)-2-[(2-dimethylamino-ethyl)carbamoyl]ethenyl}-12,13-(2-hydroxymethyl-propan-1,3-yl)-6,7,12,13-tetrahydro-5-oxo-5H-indolo[2,3-a]pyrrolo[3,4-c]carbazole], the IC50 was 237 nM.
CN(C)CCN(C)C(=O)OCC1(O)Cn2c3ccccc3c3c4c(c5c6ccccc6n(c5c32)C1)C(=O)NC4 (stereo not drawn) [Cpd 148, 12,13-(2-hydroxy-2-{[N-methyl-N-(2-dimethylamino-ethyl)]carbamoyloxymethyl}-propan-1,3-yl)-6,7,12,13-tetrahydro-5-oxo-5H-indolo[2,3-a]pyrrolo[3,4-c]carbazole] gave an IC50 of 25 nM.
Molecule O=C1NCc2c1c1c3cc(OCCN4CCOCC4)ccc3n3c1c1c2c2ccccc2n1CC(O)C(O)C3 (stereo not drawn) [Cpd 203, 3-(2-morpholin-4-yl-ethoxy)-12,13-(2,3-dihydroxy-butan-1,4-yl)-6,7,12,13-tetrahydro-5-oxo-5H-indolo[2,3-a]pyrrolo[3,4-c]carbazole] has an IC50 of 618 nM.
O=C1NCc2c1c1c3cc(/C=C/Cn4ccnc4)ccc3n3c1c1c2c2cc(CO)ccc2n1CC(CO)C3 (stereo not drawn) [Cpd 223, 3-[(1E)-3-1H-imidazol-1-yl-prop-1-en-1-yl]-9-hydroxymethyl-12,13-(2-hydroxymethyl-propan-1,3-yl)-6,7,12,13-tetrahydro-5-oxo-5H-indolo[2,3-a]pyrrolo[3,4-c]carbazole] showed an IC50 of 3 nM.
Work on CC1(C)OCC2(CO1)Cn1c3ccccc3c3c4c(c5c6ccccc6n(c5c31)C2)C(=O)NC4 [Cpd 26] yielded an IC50 of 95 nM.
For O=C(O)/C=C/c1ccc2c(c1)c1c3c(c4c5ccccc5n5c4c1n2CC(CO)C5)CNC3=O (stereo not drawn) [Cpd 218, 3-[(2E)-2-carboxy-ethenyl]-12,13-(2-hydroxymethyl-propan-1,3-yl)-6,7,12,13-tetrahydro-5-oxo-5H-indolo[2,3-a]pyrrolo[3,4-c]carbazole], the IC50 was 686 nM.
O=C1NC(=O)c2c1c1c3ccccc3n3c1c1c2c2ccccc2n1CC(OC(=O)N1CCN(CCO)CC1)CC3 (stereo not drawn) [Cpd 66, 12,13-(2-{[4-(2-hydroxy-ethyl)piperazin-1-yl]carbonyloxy}-butan-1,4-yl)-12,13-dihydro-5,7-dioxo-6H-indolo[2,3-a]pyrrolo[3,4-c]carbazole] gave an IC50 of 40 nM.
In the case of CC(C)NC(=O)OCC1(O)Cn2c3ccccc3c3c4c(c5c6ccccc6n(c5c32)C1)C(=O)NC4 (stereo not drawn) [Cpd 135, 12,13-[2-hydroxy-2-(isopropyl-carbamoyloxymethyl)-propan-1,3-yl]-6,7,12,13-tetrahydro-5-oxo-5H-indolo[2,3-a]pyrrolo[3,4-c]carbazole], the IC50 is reported as > 200 nM.
